Measured values published in US10988477B2 (Merck Patent GmbH, priority 2018, dated 2021).

biological target: GCN2 kinase (Homo sapiens, UniProt Q9P2K8); assay: GCN2 enzyme inhibition assay (Transcreener ADP2 fluorescence polarization); assay type: biochemical; settings: Enzyme activity for compounds of Formula IV; Ki(app), 280 μM ATP, 25° C.
Procedure, shortened: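 Inhibition of 4 nM GCN2 was measured with compound up to 8 μM final, ATP 280 μM and (RS)7 peptide 200 μM over a 1 h, 25 °C reaction. ADP FP readout; IC50 and Ki(app) calculated from percent inhibition.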

Sequence of GCN2 kinase (Q9P2K8 whole entry): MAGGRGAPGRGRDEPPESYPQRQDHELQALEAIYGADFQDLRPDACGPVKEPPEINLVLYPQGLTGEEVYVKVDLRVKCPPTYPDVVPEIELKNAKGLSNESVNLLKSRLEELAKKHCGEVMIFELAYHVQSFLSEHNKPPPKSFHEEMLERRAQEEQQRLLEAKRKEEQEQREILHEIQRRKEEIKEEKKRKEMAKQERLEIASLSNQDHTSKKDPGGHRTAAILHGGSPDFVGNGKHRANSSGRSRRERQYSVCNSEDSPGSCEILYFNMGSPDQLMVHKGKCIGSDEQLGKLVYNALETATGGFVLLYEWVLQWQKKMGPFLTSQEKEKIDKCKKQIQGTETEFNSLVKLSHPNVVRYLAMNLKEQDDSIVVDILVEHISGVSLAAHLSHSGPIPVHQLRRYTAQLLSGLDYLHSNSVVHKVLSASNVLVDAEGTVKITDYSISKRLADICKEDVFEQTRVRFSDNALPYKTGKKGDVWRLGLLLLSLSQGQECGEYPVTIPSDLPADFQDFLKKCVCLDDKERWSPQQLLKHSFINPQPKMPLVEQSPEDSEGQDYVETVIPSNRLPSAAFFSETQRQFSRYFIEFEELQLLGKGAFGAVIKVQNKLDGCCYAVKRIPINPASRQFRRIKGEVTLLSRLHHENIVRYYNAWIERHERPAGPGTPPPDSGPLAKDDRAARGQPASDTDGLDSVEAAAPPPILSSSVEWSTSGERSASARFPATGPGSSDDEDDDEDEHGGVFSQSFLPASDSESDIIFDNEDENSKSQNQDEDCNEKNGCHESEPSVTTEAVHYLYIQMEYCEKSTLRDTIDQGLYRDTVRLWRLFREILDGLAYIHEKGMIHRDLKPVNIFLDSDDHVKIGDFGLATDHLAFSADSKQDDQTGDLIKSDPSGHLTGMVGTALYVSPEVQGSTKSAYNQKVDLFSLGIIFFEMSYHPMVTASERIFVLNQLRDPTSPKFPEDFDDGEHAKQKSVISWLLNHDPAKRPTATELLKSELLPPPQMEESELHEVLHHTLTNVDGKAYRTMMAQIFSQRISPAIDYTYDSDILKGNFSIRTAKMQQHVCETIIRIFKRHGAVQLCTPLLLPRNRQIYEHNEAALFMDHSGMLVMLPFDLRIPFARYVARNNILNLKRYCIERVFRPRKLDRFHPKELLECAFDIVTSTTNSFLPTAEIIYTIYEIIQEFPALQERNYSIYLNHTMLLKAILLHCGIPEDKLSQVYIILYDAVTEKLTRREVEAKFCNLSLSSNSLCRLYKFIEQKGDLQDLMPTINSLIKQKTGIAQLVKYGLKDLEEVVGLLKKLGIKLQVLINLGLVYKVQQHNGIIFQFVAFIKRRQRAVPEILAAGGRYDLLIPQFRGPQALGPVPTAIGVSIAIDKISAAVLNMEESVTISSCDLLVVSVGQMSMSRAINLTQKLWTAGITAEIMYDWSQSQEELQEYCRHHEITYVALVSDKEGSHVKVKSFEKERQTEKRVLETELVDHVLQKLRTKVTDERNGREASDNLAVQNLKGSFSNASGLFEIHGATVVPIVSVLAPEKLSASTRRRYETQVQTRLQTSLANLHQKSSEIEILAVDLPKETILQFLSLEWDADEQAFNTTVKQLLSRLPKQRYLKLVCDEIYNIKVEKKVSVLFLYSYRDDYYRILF

Ki	Compound
100 to 1000 nM	CC(=O)N1CCN(c2ccnc(-c3cnc4cnc(-c5ccc(CO)cc5)cn34)n2)CC1 [IV-302, 1-(4-(2-(6-(4-(Hydroxymethyl)phenyl)imidazo[1,2-a]pyrazin-3-yl)pyrimidin-4-yl)piperazin-1-yl)ethan-1-one]
100 to 1000 nM	CS(=N)(=O)CC1CCN(c2ccnc(-c3cnc4cnc(C(F)(F)F)cn34)n2)C1 (centres unmarked) [IV-607, Imino(methyl)((1-(2-(6-(trifluoromethyl)imidazo[1,2-a]pyrazin-3-yl)pyrimidin-4-yl)pyrrolidin-3-yl)methyl)-λ^6-sulfanone]
100 to 1000 nM	O=C1NCCC12CCCN(c1ccnc(-c3cnc4cnc(C(F)(F)F)cn34)n1)C2 (centres unmarked) [IV-542, 7-(2-(6-(Trifluoromethyl)imidazo[1,2-a]pyrazin-3-yl)pyrimidin-4-yl)-2,7-diazaspiro[4.5]decan-1-one]
10 to 100 nM	FC(F)(F)c1cn2c(-c3nccc(N4CCCC(c5c[nH]cn5)C4)n3)cnc2cn1 (centres unmarked) [IV-325, 3-(4-(3-(1H-Imidazol-4-yl)piperidin-1-yl)pyrimidin-2-yl)-6-(trifluoromethyl)imidazo[1,2-a]pyrazine]
100 to 1000 nM	NCC1CN(c2ccnc(-c3cnc4cnc(C(F)(F)F)cn34)n2)CCO1 (centres unmarked) [IV-489]
100 to 1000 nM	O=S1(=O)CCC2CN(c3ccnc(-c4cnc5cnc(C(F)(F)F)cn45)n3)CC21 (centres unmarked) [IV-570, 5-(2-(6-(Trifluoromethyl)imidazo[1,2-a]pyrazin-3-yl)pyrimidin-4-yl)hexahydro-2H-thieno[2,3-a]pyrrole 1,1-dioxide]
100 to 1000 nM	FC(F)(F)c1cn2c(-c3nccc(N4CCCC(c5ncno5)C4)n3)cnc2cn1 (centres unmarked) [IV-322, 5-(1-(2-(6-(Trifluoromethyl)imidazo[1,2-a]pyrazin-3-yl)pyrimidin-4-yl)piperidin-3-yl)-1,2,4-oxadiazole]
100 to 1000 nM	O=c1nc(C2CCCN(c3ccnc(-c4cnc5cnc(C(F)(F)F)cn45)n3)C2)[nH][nH]1 (centres unmarked) [IV-660, 5-(1-(2-(6-(Trifluoromethyl)imidazo[1,2-a]pyrazin-3-yl)pyrimidin-4-yl)piperidin-3-yl)-1,2-dihydro-3H-1,2,4-triazol-3-one]
100 to 1000 nM	FC(F)(F)c1cn2c(-c3nccc(-n4ccc(C5CCCNC5)n4)n3)cnc2cn1 (centres unmarked) [IV-634, 3-(4-(3-(Piperidin-3-yl)-1H-pyrazol-1-yl)pyrimidin-2-yl)-6-(trifluoromethyl)imidazo[1,2-a]pyrazine]
100 to 1000 nM	FC(F)(F)c1cn2c(-c3nccc(N4CCC(C5CCCC5)C4)n3)cnc2cn1 (centres unmarked) [IV-644, 3-(4-(3-Cyclopentylpyrrolidin-1-yl)pyrimidin-2-yl)-6-(trifluoromethyl)imidazo[1,2-a]pyrazine]
> 1000 nM	CC1c2ccsc2CCN1c1ccnc(-c2cnc3cnc(C(F)(F)F)cn23)n1 (centres unmarked) [IV-730]
100 to 1000 nM	N#CCCN1CCN(c2ccnc(-c3cnc4cnc(C(F)(F)F)cn34)n2)CC1 [IV-620, 3-(4-(2-(6-(Trifluoromethyl)imidazo[1,2-a]pyrazin-3-yl)pyrimidin-4-yl)piperazin-1-yl)propanenitrile]
10 to 100 nM	CC1CCCN(c2ccnc(-c3cnc4cnc(C(N)=O)cn34)n2)C1 (centres unmarked) [IV-187, 3-(4-(3-Methylpiperidin-1-yl)pyrimidin-2-yl)imidazo[1,2-a]pyrazine-6-carboxamide]
> 1000 nM	Cn1cc(NC(=O)[C@@H]2CCCN(c3ccnc(-c4cnc5cnc(C(F)(F)F)cn45)n3)C2)cn1 [IV-728]
100 to 1000 nM	FC(F)(F)c1cn2c(-c3nccc(-c4cnn(C5CCOCC5)c4)n3)cnc2cn1 [IV-448, 3-(4-(1-(Tetrahydro-2H-pyran-4-yl)-1H-pyrazol-4-yl)pyrimidin-2-yl)-6-(trifluoromethyl)imidazo[1,2-a]pyrazine]
100 to 1000 nM	O=C(NCCO)C1CCCN(c2ccnc(-c3cnc4cnc(C(F)(F)F)cn34)n2)C1 (centres unmarked) [IV-479, N-(2-Hydroxyethyl)-1-(2-(6-(trifluoromethyl)imidazo[1,2-a]pyrazin-3-yl)pyrimidin-4-yl)piperidine-3-carboxamide]
< 10 nM	Cc1[nH]ncc1C1NC(C)CN(c2ccnc(-c3cnc4cnc(Cl)cn34)n2)C1C (single isomer, unassigned) [IV-282, 6-Chloro-3-(4-(2,5-dimethyl-3-(5-methyl-1H-pyrazol-4-yl)piperazin-1-yl)pyrimidin-2-yl)imidazo[1,2-a]pyrazine]
10 to 100 nM	CC1CCCN(c2ccnc(-c3cnc4cnc(C(F)(F)F)cn34)n2)C1C (centres unmarked) [IV-519, 3-(4-(2,3-Dimethylpiperidin-1-yl)pyrimidin-2-yl)-6-(trifluoromethyl)imidazo[1,2-a]pyrazine]
100 to 1000 nM	CC(C)(C)OC(=O)N1CCC2(CC1)CCN(c1ccnc(-c3cnc4cnc(C(F)F)cn34)n1)C2 [IV-133, tert-Butyl 2-(2-(6-(difluoromethyl)imidazo[1,2-a]pyrazin-3-yl)pyrimidin-4-yl)-2,8-diazaspiro[4.5]decane-8-carboxylate]

same assay, conditions: compounds of Formula II; 280 μM ATP, 4 nM GCN2 kinase

Ki	Compound
10 to 1000 nM	CC1CN(c2cc(-c3cnc4ccc(C(F)F)nn34)ncn2)CC(CO)O1 (centres unmarked) [II-615, (4-(6-(6-(Difluoromethyl)imidazo[1,2-b]pyridazin-3-yl)pyrimidin-4-yl)-6-methylmorpholin-2-yl)methanol]
10 to 1000 nM	CC1C(CNS(C)(=O)=O)C(C)(O)C(C)CN1c1cc(-c2cnc3ccc(C(F)F)nn23)ncn1 (centres unmarked) [II-617, N-((1-(6-(6-(Difluoromethyl)imidazo[1,2-b]pyridazin-3-yl)pyrimidin-4-yl)-4-hydroxy-2,4,5-trimethylpiperidin-3-yl)methyl)methanesulfonamide]
10 to 1000 nM	CC1(C)CN(c2cc(-c3cnc4ccc(C(F)F)nn34)ncn2)CC(CNS(C)(=O)=O)N1 (centres unmarked) [II-569, N-((4-(6-(6-(Difluoromethyl)imidazo[1,2-b]pyridazin-3-yl)pyrimidin-4-yl)-6,6-dimethylpiperazin-2-yl)methyl)methanesulfonamide]
10 to 1000 nM	CS(=O)(=O)NCC1CC(C#N)CN(c2cc(-c3cnc4ccc(C(F)F)nn34)ncn2)C1 (centres unmarked)
> 1000 nM	CC(=O)N1CCN(c2cc(-c3cnc4ccc(Cl)nn34)ncn2)CC1 [II-590, 1-[4-[6-(6-Chloroimidazo[1,2-b]pyridazin-3-yl)pyrimidin-4-yl]piperazin-1-yl]ethanone]
10 to 1000 nM	CS(C)(=O)=NC1CC(C(F)(F)F)CN(c2cc(-c3cnc4ccc(C(F)F)nn34)ncn2)C1 (centres unmarked) [II-654, ((1-(6-(6-(Difluoromethyl)imidazo[1,2-b]pyridazin-3-yl)pyrimidin-4-yl)-5-(trifluoromethyl)piperidin-3-yl)imino)dimethyl-λ^6-sulfanone]
< 10 nM	COCCOC1CC(CNS(C)(=O)=O)CN(c2cc(-c3cnc4ccc(C(F)F)nn34)ncn2)C1 (centres unmarked) [II-550, N-((1-(6-(6-(Difluoromethyl)imidazo[1,2-b]pyridazin-3-yl)pyrimidin-4-yl)-5-(2-methoxyethoxy)piperidin-3-yl)methyl)methanesulfonamide]
10 to 1000 nM	Cc1cc(CN=S(C)(C)=O)cc(-c2cc(-c3cnc4ccc(C(F)F)nn34)ncn2)c1 [II-610, [3-[6-[6-(Difluoromethyl)imidazo[1,2-b]pyridazin-3-yl]pyrimidin-4-yl]-5-methyl-phenyl]methylimino-dimethyl-oxo-λ^6-sulfane]
10 to 1000 nM	CNS(=O)(=O)CC1CCCN(c2cc(-c3cnc4ccc(C(F)F)nn34)ncn2)C1 (centres unmarked) [II-236, 1-(1-(6-(6-(Difluoromethyl)imidazo[1,2-b]pyridazin-3-yl)pyrimidin-4-yl)piperidin-3-yl)-N-methylmethanesulfonamide]
< 10 nM	C[C@@H]1C[C@H](CS(C)(=N)=O)[C@H](C)N(c2cc(-c3cnc4ccc(C(F)F)nn34)ncn2)C1 (stereo partly drawn) [II-606, (((2S,3S,5R)-1-(6-(6-(Difluoromethyl)imidazo[1,2-b]pyridazin-3-yl)pyrimidin-4-yl)-2,5-dimethylpiperidin-3-yl)methyl)(imino)(methyl)-λ^6-sulfanone]
< 10 nM	CS(=O)(=O)NCC1CCCN(c2cc(-c3cnc4ccc(C(F)F)nn34)cc(NCCO)n2)C1 (centres unmarked) [II-91, N-((1-(4-(6-(Difluoromethyl)imidazo[1,2-b]pyridazin-3-yl)-6-((2-hydroxyethyl)amino)pyridin-2-yl)piperidin-3-yl)methyl)methanesulfonamide]
10 to 1000 nM	CC1CC(N=S2(=O)CCCC2)CN(c2cc(-c3cnc4ccc(C(F)F)nn34)ncn2)C1 (centres unmarked) [II-649, 1-((1-(6-(6-(Difluoromethyl)imidazo[1,2-b]pyridazin-3-yl)pyrimidin-4-yl)-5-methylpiperidin-3-yl)imino)tetrahydro-1H-1-λ^6-thiophene 1-oxide]
10 to 1000 nM	CC1CC(N=S(C)(=O)C2CC2)CN(c2cc(-c3cnc4ccc(C(F)F)nn34)ncn2)C1 (single isomer, unassigned) [II-647, Cyclopropyl((1-(6-(6-(difluoromethyl)imidazo[1,2-b]pyridazin-3-yl)pyrimidin-4-yl)-5-methylpiperidin-3-yl)imino)(methyl)-λ^6-sulfanone]
> 1000 nM	CC1CCC(N=S(C)(C)=O)CN1c1cc(-c2cnc3ccc(C(F)F)nn23)ncn1 (centres unmarked) [II-697, [1-[6-[6-(Difluoromethyl)imidazo[1,2-b]pyridazin-3-yl]pyrimidin-4-yl]-6-methyl-3-piperidyl]imino-dimethyl-λ^6-sulfanone]
10 to 1000 nM	CS(=O)(=O)C1CCCN(c2cc(-c3cnc4ccc(C(F)F)nn34)ncn2)C1 (single isomer, unassigned) [II-530, 6-(Difluoromethyl)-3-(6-(3-(methylsulfonyl)piperidin-1-yl)pyrimidin-4-yl)imidazo[1,2-b]pyridazine]

same assay, conditions: compounds of Formula IV; 280 μM ATP, 4 nM GCN2 kinase

IC50	Compound
10 to 1000 nM	Cc1n[nH]cc1[C@H]1CN(c2ccnc(-c3cnc4cnc(C(F)(F)F)cn34)n2)C[C@H](C)O1 [IV-761, (2S,6S)-2-methyl-6-(3-methyl-1H-pyrazol-4-yl)-4-(2-(6-(trifluoromethyl)imidazo[1,2-a]pyrazin-3-yl)pyrimidin-4-yl)morpholine]
